We go through 18 compounds from patent publication US20230122344A1, “ANTAGONISTS OF THE MUSCARINIC ACETYLCHOLINE RECEPTOR M4” (Vanderbilt University, priority 2019, published 2023).

In this test the target is T1, Human M4 (Homo sapiens, UniProt P08173).
T1 construct: expressed in transfected cells; host or cells: CHO-K1 (ATCC), co-transfected with chimeric G protein Gqi5
T1 sequence (P08173 1-479): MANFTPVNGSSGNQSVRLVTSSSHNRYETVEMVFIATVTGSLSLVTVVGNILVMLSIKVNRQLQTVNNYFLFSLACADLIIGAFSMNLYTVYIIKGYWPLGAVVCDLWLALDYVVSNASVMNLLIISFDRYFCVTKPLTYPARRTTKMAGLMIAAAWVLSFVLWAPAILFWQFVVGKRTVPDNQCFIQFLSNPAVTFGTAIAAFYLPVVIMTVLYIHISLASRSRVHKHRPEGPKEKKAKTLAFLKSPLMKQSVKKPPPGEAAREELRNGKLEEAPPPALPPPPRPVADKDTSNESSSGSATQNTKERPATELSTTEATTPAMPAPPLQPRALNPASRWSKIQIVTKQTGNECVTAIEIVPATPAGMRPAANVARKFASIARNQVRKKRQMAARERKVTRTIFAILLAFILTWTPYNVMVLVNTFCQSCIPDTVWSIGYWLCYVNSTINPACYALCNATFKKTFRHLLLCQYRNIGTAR
Kind of test: mAChR M4 cell-based functional assay (calcium flux, antagonism of EC80 acetylcholine response). The note with it: M4/Gqi5/CHO-K1 cells; for remaining activity at 30 µM: CHO-K1, % ACh maximum at 30 μM, read-out: Human M4 Emin; for IC50: decrease of response elicited by EC80 acetylcholine. Put shortly: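 CHO-K1 cells stably expressing human or rat M4 with Gqi5, Fluo-4 loaded; calcium measured by fluorescence ratio on FDSS. Compound added, then EC20 acetylcholine at 143 s and EC80 at 268 s; IC50 from decrease of EC80 response, four-parameter logistic fit.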

For `[2H]C([2H])(C1CCOCC1)N1C[C@H]2C[C@H](Nc3nnc(-c4ccc5ccccc5c4)c(C)c3C)C[C@H]2C1` [compound 71, (3aR,5s,6aS)-N-(4,5-dimethyl-6-(naphthalen-2-yl)pyridazin-3-yl)-2-((tetrahydro-2H-pyran-4-yl)methyl-d2)octahydrocyclopenta[c]pyrrol-5-amine], the remaining activity at 30 µM was 2% and the IC50 amounted to 12.7 nM.
As for `Cc1c(-c2ccc3nn(C)cc3c2)nnc(N[C@H]2C[C@@H]3CN(CC4CCOCC4)C[C@@H]3C2)c1C#N` [compound 72, 5-methyl-6-(2-methyl-2H-indazol-5-yl)-3-(((3aR,5s,6aS)-2-((tetrahydro-2H-pyran-4-yl)methyl)octahydrocyclopenta[c]pyrrol-5-yl)amino)pyridazine-4-carbonitrile], the remaining activity at 30 µM is 4% and the 50% inhibitory concentration (IC50) stood at 0.91 nM.
The like results for `Cc1c(-c2ccc(F)cc2)nnc(N[C@H]2C[C@@H]3CN(CC4CCOCC4)C[C@@H]3C2)c1C#N` [compound 73, 6-(4-fluorophenyl)-5-methyl-3-(((3aR,5s,6aS)-2-((tetrahydro-2H-pyran-4-yl)methyl)octahydrocyclopenta[c]pyrrol-5-yl)amino)pyridazine-4-carbonitrile] were, in that order, 4% and 3.43 nM.
For the compound `[2H]C([2H])(C1CCOCC1)N1C[C@H]2C[C@H](Nc3nnc(-c4cc(F)ccc4C)c(C)c3C(F)(F)F)C[C@H]2C1` [compound 74, (3aR,5s,6aS)-N-(6-(5-fluoro-2-methylphenyl)-5-methyl-4-(trifluoromethyl)pyridazin-3-yl)-2-((tetrahydro-2H-pyran-4-yl)methyl-d2)octahydrocyclopenta[c]pyrrol-5-amine], the remaining activity at 30 µM is 2% and the IC50 was determined as 159 nM.
`[2H]C([2H])(C1CCOCC1)N1C[C@H]2C[C@H](Nc3nnc(-c4cc(F)ccc4F)c(C)c3C(F)(F)F)C[C@H]2C1` [compound 75, (3aR,5s,6aS)-N-(6-(2,5-difluorophenyl)-5-methyl-4-(trifluoromethyl)pyridazin-3-yl)-2-((tetrahydro-2H-pyran-4-yl)methyl-d2)octahydrocyclopenta[c]pyrrol-5-amine]: the remaining activity at 30 µM was found to be 3% and the IC50 came out at 20.9 nM.
Regarding `[2H]C([2H])(C1CCOCC1)N1C[C@H]2C[C@H](Nc3nnc(-c4ccccc4)c(C)c3C(F)(F)F)C[C@H]2C1` [compound 76, (3aR,5s,6aS)-N-(5-methyl-6-phenyl-4-(trifluoromethyl)pyridazin-3-yl)-2-((tetrahydro-2H-pyran-4-yl)methyl-d2)octahydrocyclopenta[c]pyrrol-5-amine], the remaining activity at 30 µM came out at 3% and the concentration for half-maximal inhibition (IC50) turned out to be 12.1 nM.
Turning to `[2H]C([2H])(C1CCOCC1)N1C[C@H]2C[C@H](Nc3nnc(-c4cc(F)cc(F)c4F)c(C4CC4)c3C(F)(F)F)C[C@H]2C1` [compound 77, (3aR,5s,6aS)-N-(5-cyclopropyl-4-(trifluoromethyl)-6-(2,3,5-trifluorophenyl)pyridazin-3-yl)-2-((tetrahydro-2H-pyran-4-yl)methyl-d2)octahydrocyclopenta[c]pyrrol-5-amine], the remaining activity at 30 µM came out at 2% and the IC50 amounted to 83.5 nM.
Consider `OC1(CN2C[C@H]3C[C@H](Nc4nnc(-c5cc(F)ccc5F)cc4C(F)F)C[C@H]3C2)CCOCC1` [compound 78, 4-(((3aR,5s,6aS)-5-((4-(difluoromethyl)-6-(2,5-difluorophenyl)pyridazin-3-yl)amino)hexahydrocyclopenta[c]pyrrol-2(1H)-yl)methyl)tetrahydro-2H-pyran-4-ol], for which the remaining activity at 30 µM amounted to 4% and the concentration for half-maximal inhibition (IC50) is 230 nM.
With `CC1(CN2C[C@H]3C[C@H](Nc4nnc(-c5cc(F)ccc5F)cc4C(F)F)C[C@H]3C2)CCOCC1` [compound 79, (3aR,5s,6aS)-N-(4-(difluoromethyl)-6-(2,5-difluorophenyl)pyridazin-3-yl)-2-((4-methyltetrahydro-2H-pyran-4-yl)methyl)octahydrocyclopenta[c]pyrrol-5-amine], the remaining activity at 30 µM is 4% and the IC50 amounted to 110 nM.
As for `Fc1ccc(F)c(-c2cc(C(F)F)c(N[C@H]3C[C@@H]4CN(C[C@@H]5COCCO5)C[C@@H]4C3)nn2)c1` [compound 80, (3aR,5S,6aS)-2-(((R)-1,4-dioxan-2-yl)methyl)-N-(4-(difluoromethyl)-6-(2,5-difluorophenyl)pyridazin-3-yl)octahydrocyclopenta[c]pyrrol-5-amine], the remaining activity at 30 µM was 4% and the concentration for half-maximal inhibition (IC50) came out at 5 nM.
`Fc1ccc(F)c(-c2cc(C(F)F)c(N[C@H]3C[C@@H]4CN(C[C@H]5COCCO5)C[C@@H]4C3)nn2)c1` [compound 81, (3aR,5R,6aS)-2-(((S)-1,4-dioxan-2-yl)methyl)-N-(4-(difluoromethyl)-6-(2,5-difluorophenyl)pyridazin-3-yl)octahydrocyclopenta[c]pyrrol-5-amine]: the remaining activity at 30 µM turned out to be 4% and the IC50 turned out to be 180 nM.
In the same order, the values of `Cc1ccc(C(F)(F)F)cc1-c1cc(C(F)F)c(N[C@H]2C[C@@H]3CN(CC4CCOCC4)C[C@@H]3C2)nn1` [compound 82, (3aR,5s,6aS)-N-(4-(difluoromethyl)-6-(2-methyl-5-(trifluoromethyl)phenyl)pyridazin-3-yl)-2-((tetrahydro-2H-pyran-4-yl)methyl)octahydrocyclopenta[c]pyrrol-5-amine] are 4% and 49 nM.
On to `Cn1cc2cc(-c3cc(C(F)F)c(N[C@H]4C[C@@H]5CN(CC6CCOCC6)C[C@@H]5C4)nn3)ccc2n1` [compound 83, (3aR,5s,6aS)-N-(4-(difluoromethyl)-6-(2-methyl-2H-indazol-5-yl)pyridazin-3-yl)-2-((tetrahydro-2H-pyran-4-yl)methyl)octahydrocyclopenta[c]pyrrol-5-amine], for which the remaining activity at 30 µM is 5% and the IC50 was 2.3 nM.
As to `Cc1c(-c2cc(C(F)F)c(N[C@H]3C[C@@H]4CN(CC5CCOCC5)C[C@@H]4C3)nn2)ccc2nn(C)cc12` [compound 84, (3aR,5s,6aS)-N-(4-(difluoromethyl)-6-(2,4-dimethyl-2H-indazol-5-yl)pyridazin-3-yl)-2-((tetrahydro-2H-pyran-4-yl)methyl)octahydrocyclopenta[c]pyrrol-5-amine], the remaining activity at 30 µM was found to be 3% and the IC50 is 0.89 nM.
In the same order, the values of `COc1ccc(F)cc1-c1cc(C(F)F)c(N[C@H]2C[C@@H]3CN(CC4CCOCC4)C[C@@H]3C2)nn1` [compound 85, (3aR,5s,6aS)-N-(4-(difluoromethyl)-6-(5-fluoro-2-methoxyphenyl)pyridazin-3-yl)-2-((tetrahydro-2H-pyran-4-yl)methyl)octahydrocyclopenta[c]pyrrol-5-amine] are 4% and 11 nM.
`FC(F)c1cc(-c2ccccc2OC(F)(F)F)nnc1N[C@H]1C[C@@H]2CN(CC3CCOCC3)C[C@@H]2C1` [compound 86, (3aR,5s,6aS)-N-(4-(difluoromethyl)-6-(2-(trifluoromethoxy)phenyl)pyridazin-3-yl)-2-((tetrahydro-2H-pyran-4-yl)methyl)octahydrocyclopenta[c]pyrrol-5-amine]: the remaining activity at 30 µM was found to be 5% and the IC50 worked out at 19 nM.
As for `Fc1ccc(C(F)(F)F)c(-c2cc(C(F)F)c(N[C@H]3C[C@@H]4CN(CC5CCOCC5)C[C@@H]4C3)nn2)c1` [compound 87, (3aR,5s,6aS)-N-(4-(difluoromethyl)-6-(5-fluoro-2-(trifluoromethyl)phenyl)pyridazin-3-yl)-2-((tetrahydro-2H-pyran-4-yl)methyl)octahydrocyclopenta[c]pyrrol-5-amine], the remaining activity at 30 µM amounted to 3% and the IC50 turned out to be 4.9 nM.
As to `[2H]C([2H])(C1CCOCC1)N1C[C@H]2C[C@H](Nc3nnc(-c4cc(F)cc(F)c4F)cc3C(F)F)C[C@H]2C1` [compound 88, (3aR,5s,6aS)-N-(4-(difluoromethyl)-6-(2,3,5-trifluorophenyl)pyridazin-3-yl)-2-((tetrahydro-2H-pyran-4-yl)methyl-d2)octahydrocyclopenta[c]pyrrol-5-amine], the remaining activity at 30 µM turned out to be 3% and the IC50 was found to be 10 nM.
